Measured values: ChEMBL document CHEMBL5291721, “A preclinical secondary pharmacology resource illuminates target-adverse drug reaction associations of marketed drugs” (Nat Commun, 2023)

Tests used:
Androgen receptor [1] = biological target: T1, Androgen receptor (Rattus norvegicus, UniProt P15207); assay type: functional
T1 sequence (P15207 whole entry): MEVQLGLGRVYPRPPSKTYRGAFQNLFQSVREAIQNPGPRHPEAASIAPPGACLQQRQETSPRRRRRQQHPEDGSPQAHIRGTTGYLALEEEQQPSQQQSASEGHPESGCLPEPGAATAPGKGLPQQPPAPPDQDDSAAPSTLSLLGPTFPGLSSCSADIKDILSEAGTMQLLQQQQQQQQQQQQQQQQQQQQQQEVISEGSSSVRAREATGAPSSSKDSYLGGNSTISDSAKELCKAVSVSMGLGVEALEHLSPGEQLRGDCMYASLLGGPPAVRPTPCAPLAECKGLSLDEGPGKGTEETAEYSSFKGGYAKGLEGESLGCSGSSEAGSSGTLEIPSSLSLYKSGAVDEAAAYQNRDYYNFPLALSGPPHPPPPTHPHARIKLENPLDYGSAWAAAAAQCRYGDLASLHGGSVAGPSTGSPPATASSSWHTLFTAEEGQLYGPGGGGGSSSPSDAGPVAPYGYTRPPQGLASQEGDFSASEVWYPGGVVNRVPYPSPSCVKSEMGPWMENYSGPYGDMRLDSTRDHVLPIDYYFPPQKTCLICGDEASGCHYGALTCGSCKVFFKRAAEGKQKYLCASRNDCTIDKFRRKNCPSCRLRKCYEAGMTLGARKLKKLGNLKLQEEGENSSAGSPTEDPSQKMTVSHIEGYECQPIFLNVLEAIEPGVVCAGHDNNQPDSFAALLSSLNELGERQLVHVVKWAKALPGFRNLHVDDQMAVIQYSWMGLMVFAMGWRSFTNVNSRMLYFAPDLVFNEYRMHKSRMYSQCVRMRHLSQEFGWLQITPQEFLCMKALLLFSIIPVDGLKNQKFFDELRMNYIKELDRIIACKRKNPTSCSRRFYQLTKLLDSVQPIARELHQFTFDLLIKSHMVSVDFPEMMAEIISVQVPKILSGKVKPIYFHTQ

[2] = biological target: Beta-3 adrenergic receptor (Homo sapiens, UniProt P13945)
[3] = biological target: Voltage-dependent N-type calcium channel subunit alpha-1B (Rattus norvegicus, UniProt Q02294); assay type: functional
[4] = biological target: Neurotensin receptor type 1 (Homo sapiens, UniProt P30989)
Progesterone receptor = biological target: T2, Progesterone receptor (Homo sapiens, UniProt P06401)
T2 sequence (P06401 whole entry): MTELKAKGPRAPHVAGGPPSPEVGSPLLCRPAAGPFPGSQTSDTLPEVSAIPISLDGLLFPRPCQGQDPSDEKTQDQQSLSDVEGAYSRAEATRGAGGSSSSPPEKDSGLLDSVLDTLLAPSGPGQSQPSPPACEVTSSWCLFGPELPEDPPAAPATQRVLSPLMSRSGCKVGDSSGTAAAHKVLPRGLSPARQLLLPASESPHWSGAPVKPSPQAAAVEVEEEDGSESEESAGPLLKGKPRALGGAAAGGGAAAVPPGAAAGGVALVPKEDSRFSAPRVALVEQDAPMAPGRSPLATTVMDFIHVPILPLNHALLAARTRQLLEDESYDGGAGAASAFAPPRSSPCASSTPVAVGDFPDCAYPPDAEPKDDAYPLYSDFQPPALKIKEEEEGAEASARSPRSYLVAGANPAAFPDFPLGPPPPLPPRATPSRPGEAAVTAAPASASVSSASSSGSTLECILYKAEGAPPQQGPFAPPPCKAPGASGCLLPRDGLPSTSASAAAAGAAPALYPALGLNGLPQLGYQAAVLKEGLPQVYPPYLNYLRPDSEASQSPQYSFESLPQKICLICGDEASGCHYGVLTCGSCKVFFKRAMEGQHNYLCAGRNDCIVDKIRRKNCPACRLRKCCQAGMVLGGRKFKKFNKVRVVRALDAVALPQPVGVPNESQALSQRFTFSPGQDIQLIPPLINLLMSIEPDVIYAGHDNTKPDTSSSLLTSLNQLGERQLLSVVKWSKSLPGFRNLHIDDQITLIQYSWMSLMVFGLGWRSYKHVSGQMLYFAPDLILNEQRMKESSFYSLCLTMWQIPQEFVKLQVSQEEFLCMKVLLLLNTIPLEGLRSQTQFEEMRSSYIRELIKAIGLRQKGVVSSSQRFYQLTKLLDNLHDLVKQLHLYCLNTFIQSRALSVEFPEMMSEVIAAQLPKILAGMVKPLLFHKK

Androgen receptor [5] = biological target: T1, Androgen receptor
[6] = biological target: T3, Gamma-aminobutyric acid receptor subunit alpha-1/alpha-2/beta-2/gamma-2 (Homo sapiens, UniProt P14867+P18507+P47869+P47870); assay type: functional, cell-based
[7] = biological target: T3, Gamma-aminobutyric acid receptor subunit alpha-1/alpha-2/beta-2/gamma-2; assay type: functional, cell-based; remark: listed apart in the source
[8] = biological target: 5-hydroxytryptamine receptor 2A (Homo sapiens, UniProt P28223)
[9] = biological target: T4, Peroxisome proliferator-activated receptor gamma (Homo sapiens, UniProt P37231); assay type: functional
T4 sequence (P37231 whole entry): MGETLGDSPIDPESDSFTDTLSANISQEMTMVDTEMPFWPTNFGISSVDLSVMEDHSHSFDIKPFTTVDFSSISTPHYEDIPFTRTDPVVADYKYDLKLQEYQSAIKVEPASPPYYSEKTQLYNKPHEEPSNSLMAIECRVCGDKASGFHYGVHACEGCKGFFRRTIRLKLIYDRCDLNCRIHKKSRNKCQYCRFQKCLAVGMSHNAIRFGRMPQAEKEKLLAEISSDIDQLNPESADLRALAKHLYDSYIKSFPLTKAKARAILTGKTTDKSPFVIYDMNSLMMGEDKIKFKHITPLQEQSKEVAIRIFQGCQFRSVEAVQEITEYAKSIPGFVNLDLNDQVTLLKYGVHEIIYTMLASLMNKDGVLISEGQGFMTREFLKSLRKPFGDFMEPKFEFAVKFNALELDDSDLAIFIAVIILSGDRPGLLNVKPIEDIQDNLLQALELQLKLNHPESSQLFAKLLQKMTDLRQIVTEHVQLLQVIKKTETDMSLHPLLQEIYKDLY

D(1A) dopamine receptor = D(1A) dopamine receptor (Homo sapiens, UniProt P21728)
Also: assay procedure not described here.

T3 sequence (P14867 whole entry): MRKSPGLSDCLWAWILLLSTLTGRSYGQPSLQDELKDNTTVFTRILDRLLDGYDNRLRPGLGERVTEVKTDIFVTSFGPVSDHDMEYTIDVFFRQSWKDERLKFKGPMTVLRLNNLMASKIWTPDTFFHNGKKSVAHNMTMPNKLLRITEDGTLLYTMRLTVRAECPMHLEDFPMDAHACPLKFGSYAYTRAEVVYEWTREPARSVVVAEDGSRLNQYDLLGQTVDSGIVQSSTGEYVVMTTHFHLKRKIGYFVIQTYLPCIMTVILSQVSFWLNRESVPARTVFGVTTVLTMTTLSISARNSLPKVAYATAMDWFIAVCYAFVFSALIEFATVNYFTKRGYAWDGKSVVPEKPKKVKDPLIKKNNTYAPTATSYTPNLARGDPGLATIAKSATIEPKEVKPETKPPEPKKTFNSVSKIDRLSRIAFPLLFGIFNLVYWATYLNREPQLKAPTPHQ
T3 sequence (P47870 whole entry): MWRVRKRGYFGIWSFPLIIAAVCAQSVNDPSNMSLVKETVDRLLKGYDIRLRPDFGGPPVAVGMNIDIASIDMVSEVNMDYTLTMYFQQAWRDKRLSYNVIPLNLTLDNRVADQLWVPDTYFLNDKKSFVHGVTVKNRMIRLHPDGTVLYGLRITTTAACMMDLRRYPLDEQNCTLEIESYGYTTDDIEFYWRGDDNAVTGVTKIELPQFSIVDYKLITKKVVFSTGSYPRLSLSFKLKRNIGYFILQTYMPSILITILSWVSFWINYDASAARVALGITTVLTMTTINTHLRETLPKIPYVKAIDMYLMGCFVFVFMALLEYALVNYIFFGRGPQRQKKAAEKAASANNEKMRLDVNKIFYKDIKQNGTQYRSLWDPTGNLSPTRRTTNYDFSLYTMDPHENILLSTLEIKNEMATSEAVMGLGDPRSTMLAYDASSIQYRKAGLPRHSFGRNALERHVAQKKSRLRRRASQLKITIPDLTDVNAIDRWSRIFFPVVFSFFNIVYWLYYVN
T3 sequence (P18507 whole entry): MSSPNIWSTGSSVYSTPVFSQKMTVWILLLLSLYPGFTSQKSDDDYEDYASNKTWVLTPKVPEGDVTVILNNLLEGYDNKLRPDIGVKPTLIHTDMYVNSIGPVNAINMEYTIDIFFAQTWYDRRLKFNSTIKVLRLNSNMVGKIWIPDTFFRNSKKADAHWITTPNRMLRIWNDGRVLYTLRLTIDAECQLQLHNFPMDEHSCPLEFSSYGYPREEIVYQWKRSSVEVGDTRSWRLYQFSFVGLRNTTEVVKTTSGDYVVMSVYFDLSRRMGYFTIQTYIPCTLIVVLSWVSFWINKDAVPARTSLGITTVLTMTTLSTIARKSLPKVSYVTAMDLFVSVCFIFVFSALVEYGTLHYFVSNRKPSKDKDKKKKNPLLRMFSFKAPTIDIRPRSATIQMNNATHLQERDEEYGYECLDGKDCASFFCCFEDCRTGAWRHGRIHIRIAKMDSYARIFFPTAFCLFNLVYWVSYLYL
T3 sequence (P47869 whole entry): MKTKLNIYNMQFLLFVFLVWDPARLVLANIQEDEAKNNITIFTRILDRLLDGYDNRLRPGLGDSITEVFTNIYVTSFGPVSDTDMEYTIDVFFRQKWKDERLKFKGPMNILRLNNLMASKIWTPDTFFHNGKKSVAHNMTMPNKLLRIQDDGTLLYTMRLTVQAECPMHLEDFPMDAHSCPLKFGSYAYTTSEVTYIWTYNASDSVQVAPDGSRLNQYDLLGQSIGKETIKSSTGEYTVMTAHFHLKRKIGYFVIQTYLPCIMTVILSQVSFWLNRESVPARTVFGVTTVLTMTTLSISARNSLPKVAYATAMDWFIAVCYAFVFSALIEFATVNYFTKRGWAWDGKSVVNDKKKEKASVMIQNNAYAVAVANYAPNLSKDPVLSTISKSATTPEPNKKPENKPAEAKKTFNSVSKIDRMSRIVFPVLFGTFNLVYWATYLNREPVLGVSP
Chain of Voltage-dependent N-type calcium channel subunit alpha-1B (Q02294 whole entry): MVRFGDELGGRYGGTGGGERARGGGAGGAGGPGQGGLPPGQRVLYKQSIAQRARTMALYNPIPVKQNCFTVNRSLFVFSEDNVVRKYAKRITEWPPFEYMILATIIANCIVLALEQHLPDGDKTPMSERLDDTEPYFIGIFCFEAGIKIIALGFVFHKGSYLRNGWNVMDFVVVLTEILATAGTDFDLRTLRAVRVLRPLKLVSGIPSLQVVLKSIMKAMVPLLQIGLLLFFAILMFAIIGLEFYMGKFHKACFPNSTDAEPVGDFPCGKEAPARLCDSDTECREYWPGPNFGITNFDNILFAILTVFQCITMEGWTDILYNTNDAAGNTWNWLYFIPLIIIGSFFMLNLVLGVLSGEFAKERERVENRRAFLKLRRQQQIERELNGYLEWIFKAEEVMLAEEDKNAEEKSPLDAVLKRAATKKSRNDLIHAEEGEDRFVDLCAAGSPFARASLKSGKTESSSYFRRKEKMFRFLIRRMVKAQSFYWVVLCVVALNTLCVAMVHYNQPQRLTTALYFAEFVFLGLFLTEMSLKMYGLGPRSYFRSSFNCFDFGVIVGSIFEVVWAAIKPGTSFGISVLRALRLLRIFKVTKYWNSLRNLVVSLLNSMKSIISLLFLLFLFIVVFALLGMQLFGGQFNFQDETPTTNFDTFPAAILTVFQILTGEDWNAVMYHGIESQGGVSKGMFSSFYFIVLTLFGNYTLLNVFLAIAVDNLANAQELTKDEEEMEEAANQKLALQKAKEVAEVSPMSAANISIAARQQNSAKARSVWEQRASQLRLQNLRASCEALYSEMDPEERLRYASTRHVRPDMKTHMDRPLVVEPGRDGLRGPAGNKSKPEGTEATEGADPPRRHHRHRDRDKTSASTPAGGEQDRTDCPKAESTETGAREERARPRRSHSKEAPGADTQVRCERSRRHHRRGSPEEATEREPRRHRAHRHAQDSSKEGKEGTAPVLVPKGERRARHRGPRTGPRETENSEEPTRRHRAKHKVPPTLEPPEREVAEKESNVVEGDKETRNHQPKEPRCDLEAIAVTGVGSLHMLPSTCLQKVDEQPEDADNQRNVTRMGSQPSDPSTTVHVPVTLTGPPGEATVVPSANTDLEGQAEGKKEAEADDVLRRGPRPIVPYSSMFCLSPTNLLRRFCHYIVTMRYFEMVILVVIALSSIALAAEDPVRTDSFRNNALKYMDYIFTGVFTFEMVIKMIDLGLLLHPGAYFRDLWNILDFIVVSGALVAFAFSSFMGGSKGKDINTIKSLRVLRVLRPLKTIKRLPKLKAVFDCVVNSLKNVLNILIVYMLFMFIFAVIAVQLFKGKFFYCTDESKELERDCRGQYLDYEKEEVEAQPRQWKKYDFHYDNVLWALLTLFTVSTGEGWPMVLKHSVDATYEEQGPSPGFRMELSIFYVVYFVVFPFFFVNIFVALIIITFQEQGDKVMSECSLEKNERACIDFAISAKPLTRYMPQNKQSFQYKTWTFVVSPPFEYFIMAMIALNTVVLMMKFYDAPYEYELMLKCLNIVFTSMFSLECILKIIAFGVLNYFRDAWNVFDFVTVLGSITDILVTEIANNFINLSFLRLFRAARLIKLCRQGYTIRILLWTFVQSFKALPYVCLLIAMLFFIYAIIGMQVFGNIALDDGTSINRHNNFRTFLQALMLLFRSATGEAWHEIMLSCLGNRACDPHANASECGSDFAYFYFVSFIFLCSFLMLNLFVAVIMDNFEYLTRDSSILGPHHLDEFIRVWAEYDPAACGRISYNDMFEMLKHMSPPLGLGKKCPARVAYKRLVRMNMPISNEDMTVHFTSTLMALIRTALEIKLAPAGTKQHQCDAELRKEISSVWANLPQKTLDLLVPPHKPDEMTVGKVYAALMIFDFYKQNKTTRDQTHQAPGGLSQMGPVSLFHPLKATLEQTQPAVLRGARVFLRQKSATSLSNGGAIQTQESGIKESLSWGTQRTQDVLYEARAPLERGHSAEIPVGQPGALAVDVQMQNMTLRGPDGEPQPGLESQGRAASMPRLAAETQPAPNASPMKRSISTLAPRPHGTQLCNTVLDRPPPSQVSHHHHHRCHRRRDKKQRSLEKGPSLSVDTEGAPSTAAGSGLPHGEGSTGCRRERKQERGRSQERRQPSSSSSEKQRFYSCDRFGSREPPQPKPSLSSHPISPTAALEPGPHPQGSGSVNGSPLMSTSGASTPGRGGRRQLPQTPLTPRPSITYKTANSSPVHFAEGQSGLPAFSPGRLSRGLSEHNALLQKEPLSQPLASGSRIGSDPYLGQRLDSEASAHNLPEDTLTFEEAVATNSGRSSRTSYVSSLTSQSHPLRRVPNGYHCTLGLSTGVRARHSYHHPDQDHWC
Chain of D(1A) dopamine receptor (P21728 whole entry): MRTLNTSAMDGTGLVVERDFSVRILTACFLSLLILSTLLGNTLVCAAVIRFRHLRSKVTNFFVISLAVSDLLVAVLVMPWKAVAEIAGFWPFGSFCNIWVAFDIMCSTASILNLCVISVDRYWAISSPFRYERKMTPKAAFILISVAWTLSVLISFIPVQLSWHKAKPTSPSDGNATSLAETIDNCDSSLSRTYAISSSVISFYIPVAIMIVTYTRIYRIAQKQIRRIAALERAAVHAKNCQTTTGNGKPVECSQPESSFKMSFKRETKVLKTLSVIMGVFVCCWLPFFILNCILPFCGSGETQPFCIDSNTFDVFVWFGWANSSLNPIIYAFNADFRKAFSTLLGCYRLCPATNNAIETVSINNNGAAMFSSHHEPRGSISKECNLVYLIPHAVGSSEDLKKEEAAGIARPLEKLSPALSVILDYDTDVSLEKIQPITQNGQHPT

With `N#Cc1ccccc1-c1cc(-c2ccccn2)cn(-c2ccccc2)c1=O` the AC50 (Androgen receptor [1]) was > 30 µM.
With `COc1ccc(/C=C/C(=O)Nc2ccccc2C(=O)O)cc1OC` the AC50 (Androgen receptor [1]) was > 30 µM.
With `C=C[C@@]1(C)CC(=O)[C@]2(O)[C@@]3(C)[C@@H](O)CCC(C)(C)[C@@H]3[C@H](OC(=O)CCN(C)C)[C@H](OC(C)=O)[C@@]2(C)O1` the AC50 (Androgen receptor [1]) was > 30 µM.
`NCCCC(O)(P(=O)(O)O)P(=O)(O)O` [ALENDRONIC ACID] was tested, and the AC50 [2] was > 30 µM, the AC50 [3] was > 10 µM and the AC50 [4] was > 30 µM. The AC50 (Progesterone receptor) was > 30 µM.
In the case of `Nc1ccc(C(=O)O)c(O)c1` [AMINOSALICYLIC ACID], the AC50 (Androgen receptor [1]) is reported as > 30 µM.
With `NS(=O)(=O)c1cc2c(cc1C(F)(F)F)NC(Cc1ccccc1)NS2(=O)=O` (stereo not drawn) [BENDROFLUMETHIAZIDE] the AC50 (Androgen receptor [5]) was > 10 µM.
`O=C(CCCN1CCC(n2c(O)nc3ccccc32)CC1)c1ccc(F)cc1` [BENPERIDOL] was tested, and the AC50 [6] was 20 µM, the AC50 [7] was > 30 µM and the AC50 [8] was 0.0035 µM.
For `COc1cc(OC)c(C(=O)CCCN2CCCC2)c(OC)c1` [BUFLOMEDIL], the AC50 (Androgen receptor [1]) was > 30 µM.
`CS(=O)(=O)OCCCCOS(C)(=O)=O` [BUSULFAN] was tested, and the AC50 [6] was > 30 µM and the AC50 [9] was > 30 µM.
For `CCCCC1(CC)C(=O)NC(=O)NC1=O` [BUTETHAL], the AC50 (Androgen receptor [1]) was > 30 µM, the AC50 [6] was > 30 µM and the AC50 [7] was > 30 µM. The AC50 [9] was > 30 µM.
In the case of `C=CC1=C(C(=O)O)N2C(=O)[C@@H](NC(=O)/C(=N\OCC(=O)O)c3csc(N)n3)[C@H]2SC1` [CEFIXIME], the AC50 [9] is reported as > 30 µM.
For `CO[C@@]1(NC(=O)Cc2cccs2)C(=O)N2C(C(=O)O)=C(COC(N)=O)CS[C@@H]21` [CEFOXITIN], the AC50 [6] was > 30 µM and the AC50 [9] was > 30 µM.
For `CCN(CC)CCOC(=O)c1ccc(N)cc1Cl` [CHLOROPROCAINE], the AC50 [6] was > 30 µM, the AC50 [7] was > 30 µM and the AC50 [9] was > 30 µM.
For `CCC(C)(Oc1ccc(C2(c3ccc(OC(C)(CC)C(=O)O)cc3)CCCCC2)cc1)C(=O)O` (stereo not drawn) [CLINOFIBRATE], the AC50 (Androgen receptor [1]) was > 30 µM.
`COc1cccc2c1C(=O)c1c(O)c3c(c(O)c1C2=O)C[C@@](O)(C(C)=O)C[C@@H]3O[C@H]1C[C@H](N)[C@H](O)[C@H](C)O1` [DAUNORUBICIN] was tested, and the AC50 [9] was > 30 µM.
For `N[C@H](Cc1cc(I)c(Oc2cc(I)c(O)c(I)c2)c(I)c1)C(=O)O` [DEXTROTHYROXINE], the AC50 [2] was > 30 µM, the AC50 [3] was > 10 µM and the AC50 [4] was 4.8 µM. The AC50 (Progesterone receptor) was > 30 µM, the AC50 (D(1A) dopamine receptor) was > 10 µM and the AC50 [8] was > 10 µM.
In the case of `CCCCC[C@H](O)/C=C/[C@H]1[C@H](O)CC(=O)[C@@H]1C/C=C\CCCC(=O)O` [DINOPROSTONE], the AC50 (Androgen receptor [1]) is reported as 23 µM and the AC50 (D(1A) dopamine receptor) is reported as > 30 µM.
For `COC(=O)N[C@@H](C)CNc1nccc(-c2cn(C(C)C)nc2-c2cc(Cl)cc(NS(C)(=O)=O)c2F)n1` [ENCORAFENIB], the AC50 (Androgen receptor [1]) was > 30 µM.
In the case of `Clc1ccc2c(c1)C(c1ccccc1)=NCc1nncn1-2` [ESTAZOLAM], the AC50 (Androgen receptor [5]) is reported as > 30 µM and the AC50 (Progesterone receptor) is reported as > 30 µM.
